Assay results taken from patent US9802918B2, “Pyridineamine compounds useful as Pim kinase inhibitors” (Incyte Corporation, priority 2015, dated 2017).

Assays:
Format in all cases: biochemical
[1] = target: Pim-1 (Homo sapiens (Human), UniProt P11309); assay: Pim-1 kinase assay; details: 1 mM ATP; read-out: Pim1 IC50
Procedure: Supplementation of the STOP buffer with beads and stopping the reactions were done under reduced light. Prior to the stopping reactions STOP buffer with beads was preincubated for 1 h in the dark at room temperature. After stopping the reactions, plates were incubated for 1 h in the dark at room temperature before reading on a PHERAstar FS plate reader (BMG Labtech) under reduced light.

[2] = target: Pim-2 (Homo sapiens (Human), UniProt Q9P1W9); assay: Pim-2 kinase assay; details: 1 mM ATP; read-out: Pim2 IC50
Sequence of Pim-2 (Q9P1W9 whole entry): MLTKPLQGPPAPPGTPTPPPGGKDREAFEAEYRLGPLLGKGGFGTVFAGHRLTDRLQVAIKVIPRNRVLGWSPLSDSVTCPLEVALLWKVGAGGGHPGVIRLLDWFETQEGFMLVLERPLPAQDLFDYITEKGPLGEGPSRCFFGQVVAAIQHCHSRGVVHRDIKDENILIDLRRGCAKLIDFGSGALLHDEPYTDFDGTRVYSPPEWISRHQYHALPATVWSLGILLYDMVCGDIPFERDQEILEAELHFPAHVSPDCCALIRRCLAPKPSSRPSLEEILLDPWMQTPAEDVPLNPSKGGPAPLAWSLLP
Procedure: Pim-2 kinase assay—20 μL reactions were run in white 384 well polystyrene plates dotted with 0.8 μL compound/DMSO in the assay buffer (50 mM Tris, pH 7.5, 0.01% Tween-20, 5 mM mgCl2, 0.01% BSA, 5 mM DTT), containing […] Fluorescein-labeled CREBtide peptide substrate (Invitrogen PV3508), 1 mM ATP, and 1 nM enzyme (Invitrogen PV3649) for 2 h at 25° C. Reactions were stopped by addition of 10 μL TR-FRET Dilution Buffer (Invitrogen PV3574) with 30 mM EDTA and 1.5 nM LanthaScreen Tb-CREB pSer133 antibody (Invitrogen PV3566). After 30 min. incubation at room temperature, plates were read on a PHERAstar FS plate reader (BMG Labtech).

[3] = target: Pim-3 (Homo sapiens (Human), UniProt Q86V86); assay: Pim-3 kinase assay; details: 1 mM ATP; read-out: Pim3 IC50
Procedure: Pim-1 and Pim-3 kinase assays-20 μL reactions were run in white 384 well polystyrene plates dotted with 0.8 μL compound/DMSO in the assay buffer (50 mM Tris, pH 7.5, 0.01% Tween-20, 5 mM mgCl2, 0.01% BSA, 5 mM DTT), containing […] Biotin-labeled BAD peptide substrate (AnaSpec 62269), 1 mM ATP, and 2.5 pM (Pim-1, Invitrogen PV3503) or 1.25 pM (Pim-3, Millipore 14-738) enzyme for 1 h at 25° C. Reactions were stopped by addition of 10 μL STOP Buffer (150 mM Tris, pH=7.5, 150 mM NaCl, 75 mM EDTA, 0.01% Tween-20, 0.3% BSA,) supplemented with Phospho-Bad (Ser112) Antibody (Cell Signaling 9291) diluted 666-fold, and Streptavidin donor beads (PerkinElmer 6760002) along with Protein-A acceptor beads (PerkinElmer 6760137) at 15 μg/mL each. Supplementation of the STOP buffer with beads and stopping the reactions were done under reduced light. Prior to the stopping reactions STOP buffer with beads was preincubated for 1 h in the dark at room temperature. After stopping the reactions, plates were incubated for 1 h in the dark at room temperature before reading on a PHERAstar FS plate reader (BMG Labtech) under reduced light.

Sequence of Pim-1 (P11309 whole entry): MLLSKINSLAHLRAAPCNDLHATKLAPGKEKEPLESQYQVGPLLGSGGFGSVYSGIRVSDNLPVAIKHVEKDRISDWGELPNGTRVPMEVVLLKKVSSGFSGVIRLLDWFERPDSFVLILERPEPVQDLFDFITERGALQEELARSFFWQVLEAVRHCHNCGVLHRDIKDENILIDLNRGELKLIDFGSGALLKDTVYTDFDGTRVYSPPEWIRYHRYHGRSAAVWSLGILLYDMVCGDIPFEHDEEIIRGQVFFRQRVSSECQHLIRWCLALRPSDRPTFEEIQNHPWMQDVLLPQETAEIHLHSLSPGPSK

## C[C@@H]1C[C@H](N)CN(c2c(NCc3ccc(F)c(-c4c(F)cccc4F)n3)cnc3c2CCC3O)C1 (single isomer, unassigned) [Example 87 (Diastereoisomer 1)]
[1]
  IC50: < 10 nM
[2]
  IC50: 1000 to 10000 nM
[3]
  IC50: 10 to 50 nM

## C[C@@H]1C[C@H](N)CN(c2c(NCc3ccc(F)c(-c4c(F)cccc4F)n3)cnc3c2CC[C@H]3O)C1 (single isomer, unassigned) [Example 87 (Diastereoisomer 2)]
[1]
  IC50: < 10 nM
[2]
  IC50: 100 to 1000 nM
[3]
  IC50: 10 to 50 nM

## N[C@H]1C[C@@H](C(F)(F)F)CN(c2ccncc2NCc2ccc(F)c(-c3c(F)cc(N4CCOCC4)cc3F)n2)C1 (stereo in doubt) [Example 34, 4-((3S, SR)-3-Amino-5-(trifluoromethyl)piperidin-1-yl)-N-((6-(2,6-difluoro-4-morpholinophenyl)-5-fluoropyridin-2-yl)methyl)pyridin-3-amine]
[1]
  IC50: < 10 nM
[2]
  IC50: ≤ 100 nM
[3]
  IC50: ≤ 10 nM

## C[C@H]1CN(c2ccncc2NCc2ccc(F)c(-c3c(F)cc(C4(O)CCOC4)cc3F)n2)C[C@@H](N)[C@@H]1O (stereo partly drawn) [Example 1, (3R,4R,5S)-3-Amino-1-{3-[({6-[2,6-difluoro-4-(3-hydroxytetrahydrofuran-3-yl)phenyl]-5-fluoropyridin-2-yl}methyl)amino]pyridin-4-yl}-5-methylpiperidin-4-ol]
[1]
  IC50: < 10 nM
[2]
  IC50: ≤ 100 nM
[3]
  IC50: ≤ 10 nM

## C[C@H]1CN(c2ccncc2NCc2ccc(F)c(-c3c(F)cc(C4(O)CCC4)cc3F)n2)C[C@@H](N)[C@@H]1O [Example 2, (3R,4R,5S)-3-Amino-1-(3-(((6-(2,6-difluoro-4-(1-hydroxycyclobutyl)phenyl)-5-fluoropyridin-2-yl)methyl)amino)pyridin-4-yl)-5-methylpiperidin-4-ol]
[1]
  IC50: < 10 nM
[2]
  IC50: ≤ 100 nM
[3]
  IC50: ≤ 10 nM

## C[C@H]1CN(c2ccncc2NCc2ccc(F)c(-c3c(F)cc(C4(O)CCOCC4)cc3F)n2)C[C@@H](N)[C@@H]1O [Example 3, (3R,4R,5S)-3-Amino-1-(3-(((6-(2,6-difluoro-4-(4-hydroxytetrahydro-2H-pyran-4-yl)phenyl)-5-fluoropyridin-2-yl)methyl)amino)pyridin-4-yl)-5-methylpiperidin-4-ol]
[1]
  IC50: < 10 nM
[2]
  IC50: ≤ 100 nM
[3]
  IC50: ≤ 10 nM

## C[C@@H]1C[C@H](N)CN(c2ccncc2NCc2ccc(F)c(-c3c(F)cc(C4(O)CCOC4)cc3F)n2)C1 (stereo partly drawn) [Example 4, 3-(4-{6-[({4-[(3S,5R)-3-Amino-5-methylpiperidin-1-yl]pyridin-3-yl}amino)methyl]-3-fluoropyridin-2-yl}-3,5-difluorophenyl)tetrahydrofuran-3-ol]
[1]
  IC50: < 10 nM
[2]
  IC50: ≤ 100 nM
[3]
  IC50: ≤ 10 nM

## C[C@@H]1C[C@H](N)CN(c2ccncc2NCc2ccc(F)c(-c3c(F)cc(C4(O)CCC4)cc3F)n2)C1 [Example 5, 1-(4-(6-((4-((3S,5R)-3-Amino-5-methylpiperidin-1-yl)pyridin-3-ylamino)methyl)-3-fluoropyridin-2-yl)-3,5-difluorophenyl)cyclobutanol]
[1]
  IC50: < 10 nM
[2]
  IC50: ≤ 100 nM
[3]
  IC50: ≤ 10 nM

## C[C@@H]1C[C@H](N)CN(c2ccncc2NCc2ccc(F)c(-c3c(F)cc(C4(O)CCOCC4)cc3F)n2)C1 [Example 6, 4-(4-(6-((4-((3S,5R)-3-Amino-5-methylpiperidin-1-yl)pyridin-3-ylamino)methyl)-3-fluoropyridin-2-yl)-3,5-difluorophenyl)tetrahydro-2H-pyran-4-ol]
[1]
  IC50: < 10 nM
[2]
  IC50: ≤ 100 nM
[3]
  IC50: ≤ 10 nM

## N[C@H]1C[C@@H](C(F)(F)F)CN(c2ccncc2NCc2ccc(F)c(-c3c(F)cc(C4(O)CCC4)cc3F)n2)C1 [Example 7, 1-(4-{6-[({4-[(3S,5R)-3-Amino-5-(trifluoromethyl)piperidin-1-yl]pyridin-3-yl}amino)methyl]-3-fluoropyridin-2-yl}-3,5-difluorophenyl)cyclobutanol]
[1]
  IC50: < 10 nM
[2]
  IC50: ≤ 100 nM
[3]
  IC50: ≤ 10 nM

## C[C@H]1CN(c2ccncc2NCc2ccc(F)c(-c3c(F)cc(C4(O)CC4)cc3F)n2)C[C@@H](N)[C@@H]1O [Example 8, (3R,4R,5S)-3-Amino-1-{3-[({6-[2,6-difluoro-4-(1-hydroxycyclopropyl)phenyl]-5-fluoropyridin-2-yl}methyl)amino]pyridin-4-yl}-5-methylpiperidin-4-ol]
[1]
  IC50: < 10 nM
[2]
  IC50: 100 to 1000 nM
[3]
  IC50: ≤ 10 nM

## C[C@H]1CN(c2ccncc2NCc2ccc(F)c(-c3c(F)ccc(C4(O)CC4)c3F)n2)C[C@@H](N)[C@@H]1O [Example 9, (3R,4R,5S)-3-Amino-1-(3-(((6-(2,6-difluoro-3-(1-hydroxycyclopropyl)phenyl)-5-fluoropyridin-2-yl)methyl)amino)pyridin-4-yl)-5-methylpiperidin-4-ol]
[1]
  IC50: < 10 nM
[2]
  IC50: 100 to 1000 nM
[3]
  IC50: ≤ 10 nM

## C[C@@H]1C[C@H](N)CN(c2ccncc2NCc2ccc(F)c(-c3c(F)cc(C4(O)CC4)cc3F)n2)C1 [Example 10, 1-(4-{6-[({4-[(3S,5R)-3-Amino-5-methylpiperidin-1-yl]pyridin-3-yl}amino)methyl]-3-fluoropyridin-2-yl}-3,5-difluorophenyl)cyclopropanol]
[1]
  IC50: < 10 nM
[2]
  IC50: ≤ 100 nM
[3]
  IC50: ≤ 10 nM

## C[C@@H]1C[C@H](N)CN(c2ccncc2NCc2ccc(F)c(-c3c(F)ccc(C4(O)CC4)c3F)n2)C1 [Example 11, 1-(3-(6-((4-((3S,5R)-3-Amino-5-methylpiperidin-1-yl)pyridin-3-ylamino)methyl)-3-fluoropyridin-2-yl)-2,4-difluorophenyl)cyclopropanol]
[1]
  IC50: < 10 nM
[2]
  IC50: 100 to 1000 nM
[3]
  IC50: ≤ 10 nM

## C[C@H]1CN(c2ccncc2NCc2ccc(F)c(-c3c(F)cc(CC(C)(C)O)cc3F)n2)C[C@@H](N)[C@@H]1O [Example 12, (3R,4R,5S)-3-Amino-1-{3-[({6-[2,6-difluoro-4-(2-hydroxy-2-methylpropyl)phenyl]-5-fluoropyridin-2-yl}methyl)amino]pyridin-4-yl}-5-methylpiperidin-4-ol]
[1]
  IC50: < 10 nM
[2]
  IC50: ≤ 100 nM
[3]
  IC50: ≤ 10 nM

## C[C@@H]1C[C@H](N)CN(c2ccncc2NCc2ccc(F)c(-c3c(F)cc(CC(C)(C)O)cc3F)n2)C1 [Example 13, 1-(4-{6-[({4-[(3S,5R)-3-Amino-5-methylpiperidin-1-yl]pyridin-3-yl}amino)methyl]-3-fluoropyridin-2-yl}-3,5-difluorophenyl)-2-methylpropan-2-ol]
[1]
  IC50: < 10 nM
[2]
  IC50: ≤ 100 nM
[3]
  IC50: ≤ 10 nM

## C[C@H]1CN(c2ccncc2NCc2ccc(F)c(-c3c(F)cccc3F)n2)C[C@@H](N)[C@@H]1O [Example 14, (3R,4R,5S)-3-Amino-1-[3-({[6-(2,6-difluorophenyl)-5-fluoropyridin-2-yl]methyl}amino)pyridin-4-yl]-5-methylpiperidin-4-ol]
[1]
  IC50: < 10 nM
[2]
  IC50: ≤ 100 nM
[3]
  IC50: ≤ 10 nM

## COc1cccc(F)c1-c1nc(CNc2cnccc2N2C[C@@H](N)[C@H](O)[C@@H](C)C2)ccc1F [Example 15, (3R,4R,5S)-3-Amino-1-(3-(((5-fluoro-6-(2-fluoro-6-methoxyphenyl)pyridin-2-yl)methyl)amino)pyridin-4-yl)-5-methylpiperidin-4-ol]
[1]
  IC50: < 10 nM
[2]
  IC50: 100 to 1000 nM
[3]
  IC50: ≤ 10 nM

## C[C@H]1CN(c2ccncc2NCc2ccc(F)c(-c3c(F)cncc3F)n2)C[C@@H](N)[C@@H]1O [Example 16, (3R,4R,5S)-3-Amino-5-methyl-1-(3-(((3,3′,5′-trifluoro-[2,4′-bipyridin]-6-yl)methyl)amino)pyridin-4-yl)piperidin-4-ol]
[1]
  IC50: < 10 nM
[2]
  IC50: 100 to 1000 nM
[3]
  IC50: ≤ 10 nM

## C[C@H]1CN(c2ccncc2NCc2ccc(F)c(-c3c(F)cccc3C#N)n2)C[C@@H](N)[C@@H]1O [Example 17, 2-(6-((4-((3R,4R,5S)-3-Amino-4-hydroxy-5-methylpiperidin-1-yl)pyridin-3-ylamino)methyl)-3-fluoropyridin-2-yl)-3-fluorobenzonitrile]
[1]
  IC50: < 10 nM
[2]
  IC50: 100 to 1000 nM
[3]
  IC50: ≤ 10 nM

## C[C@H]1CN(c2ccncc2NCc2ccc(F)c(-c3ccccc3F)n2)C[C@@H](N)[C@@H]1O [Example 18, (3R,4R,5S)-3-Amino-1-(3-(((5-fluoro-6-(2-fluorophenyl)pyridin-2-yl)methyl)amino)pyridin-4-yl)-5-methylpiperidin-4-ol]
[1]
  IC50: < 10 nM
[2]
  IC50: 100 to 1000 nM
[3]
  IC50: ≤ 10 nM
